Measurements as given in paper PMC8997165, “Transcriptional CDK Inhibitors as Potential Treatment Option for Testicular Germ Cell Tumors” (Cancers, 2022).

Assays:
Format in all cases: cell-based, human
MPAF cells = assay: XTT cell viability assay, MPAF fibroblast control; settings: for IC50: XTT viability
Description: (§1) The following cell lines were used 2102EP, 2102EP-R, NCCIT, NCCIT-R (all ECs), TCam2 (seminoma cell line), FS1 (Sertoli cell line) and MPAF (human adult fibroblast cell line). Cells were cultivated as described previously. In brief, the ECs were cultivated in Dulbecco’s modified Eagle’s medium (DMEM) supplemented with 10% fetal bovine serum (FBS), 1% penicillin–streptomycin and […] L-glutamine. FS1 cells were grown in DMEM supplemented with 20% FSB, 1% penicillin–streptomycin, 200 mM L-glutamine and 1% nonessential amino acids (NEAA). MPAF cells were cultured in DMEM supplemented with 10% FBS, 1% penicillin–streptomycin, 200 mM L-glutamine and 1% NEAA. TCam2 cell line was cultured in RPMI medium supplemented with 10% FBS, 1% penicillin–streptomycin and […] L-glutamine. All cell lines were kept at 37 °C and 7.5% CO2. 2102EP and NCCIT were a kind gift from Prof. Dr. L. Looijenga (Princess Máxima Center for Pediatric Oncology, Utrecht, The Netherlands). Cisplatin-resistant lines 2102EP-R and NCCIT-R were obtained from PD Dr. F. Honecker (Breast and Tumor Center, ZeTup Silberturm, St. Gallen, Switzerland). MPAFs were a kind gift from […] (Bonn University, Institute of Reconstructive Neurobiology, Bonn, Germany). FS1 cells were obtained from Prof. Dr. V. Schumacher (Boston Children’s Hospital, Department of Urology; Harvard Medical School, Department of Surgery, Boston, MA, USA).
(§2) The assay was performed based on the reduction in XTT tetrazolium salt as described previously. In summary, 3000 cells were seeded per well of a 96-well cell culture plate in 100 µL of cell culture medium. The next day, cells were treated with CDK inhibitor or CDK degrader for 24/48/72 h. For XTT assay, 0.6 mg/mL XTT sodium salt was dissolved in cell culture medium (DMEM or RPMI) and supplemented with 25 µM electron carrier N-methyl dibenzopyrazine methyl sulfate (PMS). A total of 50 µL of XTT/PMS was added to each well and incubated for 4 h at 37 °C, 7.5% CO2. For readout, absorption was measured at 450 nm and 650 nm. Specific XTT signal (450 nm) was subtracted by nonspecific absorbance (650) and blank (cell culture medium). Averages of technical triplicates were calculated, and treated sample was referenced to the corresponding dimethyl sufoxide (DMSO) control. Experiment was repeated several times to obtain biological replicates. For statistical analysis, two-tailed Student’s t-test was applied.

TGCT cell lines = assay: XTT cell viability assay, summarised over TGCT tumor cell lines
Description: as §1, §2

2102EP cells = assay: XTT cell viability assay, 2102EP
Description: as §1, §2

2102EP-R cells = assay: XTT cell viability assay, 2102EP-R (cisplatin-resistant)
Description: as §1, §2

NCCIT cells = assay: XTT cell viability assay, NCCIT
Description: as §1, §2

NCCIT-R cells = assay: XTT cell viability assay, NCCIT-R (cisplatin-resistant)
Description: as §1, §2

TCam2 cells = assay: XTT cell viability assay, TCam2
Description: as §1, §2

FS1 cells = assay: XTT cell viability assay, FS1 Sertoli control
Description: as §1, §2

2102EP and NCCIT cells = assay: 7AAD/AnnexinV FACS apoptosis analysis, 2102EP and NCCIT; settings: 10 nM, 24 and 48 h
Description: (§3) Cells were seeded in 6-well cell culture plates (1.5 × 10^5 cells/well). […] For cell cycle analysis, cells were harvested after 20 h of treatment and resuspended in PBS. Ice-cold methanol was added dropwise while shaking until 70% methanol v/v was reached. Cells were incubated for 2 h at 4 °C and subsequently washed twice with cold PBS. Staining (2 µg/mL Hoechst-33342, 50 µg/mL RNaseA in PBS) was performed for 30 min at 37 °C. The cell cycle distribution was measured in an FACS Canto (BD BioSciences, Heidelberg, Germany) and analyzed using FlowJo™ v10.8 Software (BD BioSciences, Heidelberg, Germany). For apoptosis analysis, PE AnnexinV Apoptosis Detection Kit with 7-AAD (BioLegend, San Diego, CA USA) was used according to the manufacturer’s manual. Measurement was performed in an FACS Canto while analysis was performed in the corresponding BD FACSDiva software^TM (BD BioSciences, Heidelberg, Germany). Two-tailed Student’s t-test was applied for calculation of significance.

[1] = test system: TCam2, FS1 and MPAF cells; assay: 7AAD/AnnexinV FACS apoptosis analysis, TCam2, FS1 and MPAF; settings: 10 nM, 24 and 48 h
Description: as §3

[2] = test system: TGCT and control cell lines; assay: Hoechst-FACS cell cycle analysis; settings: 20 h; NVP2 and SY0351 10 nM, YKL-5-124 and THZ531 100 nM
Description: as §3

For `CCc1cnn2c(NCc3ccc[n+]([O-])c3)cc(N3CCCC[C@H]3CCO)nc12` [Dinaciclib, dinaciclib], which “sensitivity (XTT viability)” value (MPAF cells) is on record?
Its value is “almost resistant”.

What about the “viability (XTT)” value (TGCT cell lines; EC cell lines (2102EP, 2102EP-R, NCCIT, NCCIT-R), 1 nM) of the same compound?
Its value is “strong decrease in viability”.

Which results are given for `CN1CC[C@H](c2c(O)cc(O)c3c(=O)cc(-c4ccccc4Cl)oc23)[C@H](O)C1` [Flavo-Piridol, flavopiridol]?
IC50 (2102EP cells; Homo sapiens, 24 h): > 1000 nM; IC50 (2102EP cells; Homo sapiens, 48 h): 39.9 nM; IC50 (2102EP cells; Homo sapiens, 72 h): 18 nM; IC50 (2102EP-R cells; Homo sapiens, 24 h): > 1000 nM; IC50 (2102EP-R cells; Homo sapiens, 48 h): 21.9 nM; IC50 (2102EP-R cells; Homo sapiens, 72 h): 7.56 nM; IC50 (NCCIT cells; Homo sapiens, 24 h): 710 nM; IC50 (NCCIT cells; Homo sapiens, 48 h): 21.9 nM; IC50 (NCCIT cells; Homo sapiens, 72 h): 34.1 nM; IC50 (NCCIT-R cells; Homo sapiens, 24 h): 639 nM; IC50 (NCCIT-R cells; Homo sapiens, 48 h): 107 nM; IC50 (NCCIT-R cells; Homo sapiens, 72 h): 43.3 nM; IC50 (TCam2 cells; Homo sapiens, TCam2, 24 h): > 1000 nM; IC50 (TCam2 cells; Homo sapiens, TCam2, 48 h): 582 nM; IC50 (TCam2 cells; Homo sapiens, TCam2, 72 h): 273 nM; IC50 (FS1 cells; Homo sapiens, FS1, 24 h): > 1000 nM; IC50 (FS1 cells; Homo sapiens, FS1, 48 h): 696 nM; IC50 (FS1 cells; Homo sapiens, FS1, 72 h): 91.5 nM; sensitivity (XTT viability) (MPAF cells): almost resistant; IC50 (MPAF cells; Homo sapiens, Fibroblast, 24 h): > 1000 nM; IC50 (MPAF cells; Homo sapiens, Fibroblast, 48 h): > 1000 nM; IC50 (MPAF cells; Homo sapiens, Fibroblast, 72 h): > 1000 nM; viability (XTT) (TGCT cell lines; EC cell lines (2102EP, 2102EP-R, NCCIT, NCCIT-R), 50 nM): strong decrease in viability; IC50 (TGCT cell lines; Homo sapiens, 72 h, tumor (TGCT) cell lines, XTT viability, read-out: IC50 at 72 h, range over tumor cell lines): 7.5 to 273 nM

With `COC[C@@H](C)N[C@H]1CC[C@H](Nc2cc(-c3cccc(NCC4(C#N)CCOCC4)n3)c(Cl)cn2)CC1` [NVP2] as the compound, how does the IC50 (2102EP cells; 24 h) read?
Its IC50 is 503 nM.

And the IC50 (2102EP cells; 48 h)?
Its IC50 is 10.5 nM.

And the IC50 (2102EP cells; 72 h)?
Its IC50 is 6.1 nM.

And the IC50 (2102EP-R cells; 24 h)?
Its IC50 is 884 nM.

And the IC50 (2102EP-R cells; 48 h)?
The IC50 was 11.2 nM.

And the IC50 (2102EP-R cells; 72 h)?
Its IC50 is 8.6 nM.

And the IC50 (NCCIT cells; 24 h)?
Its IC50 is 90.6 nM.

And the IC50 (NCCIT cells; 48 h)?
Its IC50 is 40.7 nM.

What about the IC50 (NCCIT cells; 72 h) of the same compound?
The IC50 was 6.5 nM.

And the IC50 (NCCIT-R cells; 24 h)?
The IC50 was 104 nM.

What about the IC50 (NCCIT-R cells; 48 h) of the same compound?
The IC50 was 17.1 nM.

And the IC50 (NCCIT-R cells; 72 h)?
The IC50 was 12.2 nM.

And the IC50 (TCam2 cells; TCam2, 24 h)?
The IC50 was 216 nM.

And the IC50 (TCam2 cells; TCam2, 48 h)?
Its IC50 is 60 nM.

And the IC50 (TCam2 cells; TCam2, 72 h)?
Its IC50 is 16.1 nM.

And the IC50 (FS1 cells; FS1, 24 h)?
Its IC50 is 98.2 nM.

What about the IC50 (FS1 cells; FS1, 48 h) of the same compound?
The IC50 was 33.5 nM.

And the IC50 (FS1 cells; FS1, 72 h)?
Its IC50 is 8.9 nM.

What about the IC50 (MPAF cells; 24 h) of the same compound?
The IC50 was > 1000 nM.

And the IC50 (MPAF cells; 48 h)?
The IC50 was > 1000 nM.

What about the IC50 (MPAF cells; 72 h) of the same compound?
The IC50 was > 1000 nM.

And the “viability (XTT)” value (TGCT cell lines; TGCT cell lines and FS1 cell line, 10 nM)?
The value was “effectively reduced the viability”.

And the “apoptosis, fold compared to the control” value (2102EP and NCCIT cells)?
Its value is “up to 5.5 fold”.

And the “fold change in apoptotic cells” value [1]?
Its value is “up to 3.3 fold”.

What about the “effect on cell cycle” value [2] of the same compound?
Its value is “only mild effects on the cell cycle”.
